Laboratory results: patent publication EP0219838A2, “Carbocyclic purine nucleosides, their production and use” (Takeda Chemical Industries, Ltd., priority 1985, dated 1987)
Converted amounts (≈) assume the structure as drawn. Like-named read-outs stand apart in the source and are kept apart here.

Legend:
Assay type in all cases: cell-based
[1] = Cytotoxicity in non-infected control culture (Vero cells); conditions: monkey
Text: (§1) Vero cells were infected with 100 TCID₅₀ (50% tissue-culture infected doses) of viruses and cultured with various concentrations of the compounds.

[2] = test system: Herpes Simplex Virus Type 1, HF Strain; experiment: Inhibitory effect against herpes simplex virus (reduction of viral cytopathogenic effect) in Vero cells
Text: as §1

[3] = Cytotoxicity in non-infected control culture (FL cells); conditions: human, non-infected FL cell control culture, eight days
Adenovirus, Type 3 = experiment: Antiadenovirus activity (reduction of viral cytopathogenic effect) in FL cells; conditions: Human mastadenovirus B, 192 h; 50% inhibitory dose; FL cells infected with 100 TCID50; observed eight days after the infection; read-out: ID50 (the source's name)
Text: FL cells were infected with 100 TCID₅₀ (50% tissueculture infected doses) of viruses and cultured with various concentrations of the compouns.

[4] = Human alphaherpesvirus 1, 72 h, concentration required to reduce the viral cytopathogenic effect by 50%, Vero cells infected with 100 TCID50, observed three days after the infection, read-out: ID50 (the source's name)
[5] = Human alphaherpesvirus 1, Vero, 72 h, read-out: ID50

IC50 [2, 4] [µg/mL] | IC50 (Adenovirus, Type 3) [µg/mL] | Compound | MCC at 72 h ([1]; vero cells) [µg/mL] | MCC at 192 h [3] [µg/mL] | IC50 [2, 5] [µg/mL] | MCC at 72 h ([1]; minimum concentration to cause a visible disruption of normal cell morphology, non-infected Vero cells, three days, read-out: Cytotoxicity) [µg/mL]
0.049 (≈ 0.185 µM) | 0.39 (≈ 1.47 µM) | Nc1nc2c(ncn2[C@@H]2C[C@H](CO)[C@H](O)C2)c(=O)[nH]1 [9-[(1R, 3R, 4R)-4-hydroxymethyl-3-hydroxycyclopentan-1-yl]guanine] | 12.5 | 3.13 | – | –
3.13 (≈ 13.9 µM) | 200 (≈ 888 µM) | Nc1nc2c(ncn2COCCO)c(=O)[nH]1 [Acyclovir] | 800 | 400 | – | –
– | – | Nc1ncnc2c1ncn2[C@@H]1O[C@H](CO)[C@@H](O)[C@@H]1O [Ara-A] | 100 | – | 12.5 (≈ 46.8 µM) | –
– | – | Nc1ccn([C@@H]2O[C@H](CO)[C@@H](O)[C@@H]2O)c(=O)n1 [Ara-C] | – | – | 0.39 (≈ 1.6 µM) | 0.78
25 (≈ 81.4 µM) | – | O=c1[nH]c(=O)n([C@H]2C[C@H](O)[C@@H](CO)O2)cc1Br [BUDR] | 100 | – | – | –
50 (≈ 141 µM) | – | O=c1[nH]c(=O)n([C@H]2C[C@H](O)[C@@H](CO)O2)cc1I [IUDR] | 200 | – | – | –
